According to patent US11566057B2, “Long-acting co-agonists of the glucagon and GLP-1 receptors” (Merck Sharp & Dohme Corp., priority 2017, dated 2023):
pEC50: −log10 of the molar value. Where two headings read alike, the source gives them in different places. Numbered stars: 1 amine (or outer) side, 2 acyl side, 3 side chain; on linkers, the order of the positions; unused ones are H or OH. Square brackets hold non-standard residues; d marks the D form. Side chains are listed from the residue outwards. Peptide text beside a SMILES is read from it. * marks the point of attachment. C20 diacid = O=C(O)CCCCCCCCCCCCCCCCCCC(=O)*; Phe(4-CH2NH2) = NCc1ccc(C[C@H](N)C(=O)O)cc1; C18 diacid = O=C(O)CCCCCCCCCCCCCCCCC(=O)*; γGlu = O=C(O)[C@H](CCC(=O)[*:2])N[*:1]; Met(O2) = CS(=O)(=O)CC[C@H](N)C(=O)O; αMeD = C[C@](N)(CC(=O)O)C(=O)O; AEEA = NCCOCCOCC(=O)O; Aib = CC(C)(N)C(=O)O

Key:
[1] = molecular target: T1, human GLP1R (Homo sapiens, UniProt P43220); experiment: cAMP activity assay at the GLP-1 receptor (GLP1R); type: cell-based
T1 construct: expressed in transfected cells; growth medium holds Blasticidin and Hygromycin
T1 sequence (P43220 24-463): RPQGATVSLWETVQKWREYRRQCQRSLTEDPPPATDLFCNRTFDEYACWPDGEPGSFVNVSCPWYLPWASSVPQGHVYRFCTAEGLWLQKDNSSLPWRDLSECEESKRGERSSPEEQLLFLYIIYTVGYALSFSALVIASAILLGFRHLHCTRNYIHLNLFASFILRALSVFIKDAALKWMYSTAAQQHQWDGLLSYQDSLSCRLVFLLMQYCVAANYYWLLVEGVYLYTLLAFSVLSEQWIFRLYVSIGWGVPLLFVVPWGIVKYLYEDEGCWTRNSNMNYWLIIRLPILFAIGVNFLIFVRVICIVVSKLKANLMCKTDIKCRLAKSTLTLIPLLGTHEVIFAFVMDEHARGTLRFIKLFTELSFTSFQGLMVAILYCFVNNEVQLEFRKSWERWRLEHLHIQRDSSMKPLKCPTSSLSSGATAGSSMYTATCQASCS
Outline: (§1)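 Peptides serially diluted from DMSO (10 points) and added to frozen-stock cells bearing human GLP1R (10,000 cells/well) or GCGR (30,000 cells/well), 1 h at RT, dark. EC50 by four-parameter logistic fit of HitHunter cAMPXS luminescence, read following overnight RT incubation.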

[2] = molecular target: T2, human GCGR (Homo sapiens, UniProt P47871); experiment: cAMP activity assay at the Glucagon receptor (GCGR); type: cell-based; settings: for hGCGR/hGLP1R (hTone): ratio of GCGR EC50 to GLP1R EC50
T2 construct: expressed in transfected cells; growth medium holds Blasticidin and Hygromycin
T2 sequence (P47871 26-477): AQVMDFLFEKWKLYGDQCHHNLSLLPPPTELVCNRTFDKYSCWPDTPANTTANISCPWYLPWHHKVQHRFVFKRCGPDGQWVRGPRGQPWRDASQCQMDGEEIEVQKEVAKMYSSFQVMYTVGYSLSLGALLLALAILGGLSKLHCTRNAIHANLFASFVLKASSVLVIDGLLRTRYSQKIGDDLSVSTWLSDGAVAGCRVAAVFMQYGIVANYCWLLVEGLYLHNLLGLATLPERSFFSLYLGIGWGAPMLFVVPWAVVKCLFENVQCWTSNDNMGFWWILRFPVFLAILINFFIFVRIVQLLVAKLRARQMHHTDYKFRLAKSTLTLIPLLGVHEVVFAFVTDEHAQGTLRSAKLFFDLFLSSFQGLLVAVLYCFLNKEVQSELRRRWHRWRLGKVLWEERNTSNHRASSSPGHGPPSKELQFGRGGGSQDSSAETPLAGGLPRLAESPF
Outline: as §1

[3] = cells expressing human GLP1R, cAMP production, buffer with or without 20% human serum (not stated which), read-out: GLP1R EC50 human
[4] = summary statement: EC50 at each of the glucagon and GLP-1 receptors, read-out: EC50 at the GLP-1 receptor
[5] = summary statement: EC50 at each of the glucagon and GLP-1 receptors, read-out: EC50 at the glucagon receptor

Structure (SMILES) | pEC50 [1, 3] | pEC50 [1, 4] | hGCGR/hGLP1R (hTone) [2] | pEC50 [2, 5] | pEC50 ([2]; cells expressing human GCGR, cAMP production, buffer with or without 20% human serum (not stated which), read-out: GCGR EC50 human)
CC(C)C[C@H](NC(=O)[C@H](Cc1ccc(O)cc1)NC(=O)[C@H](CCCCN)NC(=O)[C@H](CO)NC(=O)[C@H](Cc1ccc(O)cc1)NC(=O)[C@H](CC(=O)O)NC(=O)[C@H](CO)NC(=O)[C@H](Cc1ccccc1)NC(=O)[C@H](Cc1ccccc1)NC(=O)[C@@H](NC(=O)CNC(=O)[C@H](CCC(N)=O)NC(=O)C(C)(C)NC(=O)[C@@H](N)Cc1c[nH]cn1)[C@@H](C)O)C(=O)N[C@@H](CC(=O)O)C(=O)N[C@@H](C)C(=O)N[C@@H](CCCNC(=N)N)C(=O)N[C@@H](C)C(=O)N[C@@H](C)C(=O)N[C@@H](CCCCNC(=O)COCCOCCNC(=O)COCCOCCNC(=O)CC[C@H](NC(=O)CCCCCCCCCCCCCCCCC(=O)O)C(=O)O)C(=O)N[C@@H](CC(=O)O)C(=O)N[C@@H](Cc1ccccc1)C(=O)N[C@H](C(=O)N[C@@H](CCC(N)=O)C(=O)N[C@@H](Cc1c[nH]c2ccccc12)C(=O)N[C@@H](CC(C)C)C(=O)N[C@@H](CCS(C)(=O)=O)C(=O)N[C@@H](CC(=O)O)C(=O)N[C@H](C(N)=O)[C@@H](C)O)C(C)C [TP595] (H-H[Aib]QGTFFSDYSKYLDARAAK([AEEA-AEEA-γGlu-C18 diacid])DFVQWL[Met(O2)]DT-NH2; N-terminus assumed) | < 7.70 | > 8.30 | 0.2 | > 8.30 | 
CC(C)C[C@H](NC(=O)[C@H](Cc1ccc(O)cc1)NC(=O)[C@H](CCCCN)NC(=O)[C@H](CO)NC(=O)[C@H](Cc1ccc(O)cc1)NC(=O)[C@H](CC(=O)O)NC(=O)[C@H](CO)NC(=O)[C@@H](NC(=O)[C@H](Cc1ccccc1)NC(=O)[C@@H](NC(=O)CNC(=O)[C@H](CCC(N)=O)NC(=O)C(C)(C)NC(=O)[C@@H](N)Cc1c[nH]cn1)[C@@H](C)O)[C@@H](C)O)C(=O)N[C@@H](CC(=O)O)C(=O)N[C@@H](C)C(=O)N[C@@H](CCCNC(=N)N)C(=O)N[C@@H](C)C(=O)N[C@@H](C)C(=O)N[C@@H](CCC(N)=O)C(=O)N[C@@H](CC(=O)O)C(=O)N[C@@H](Cc1ccccc1)C(=O)N[C@H](C(=O)N[C@@H](Cc1ccc(CNC(=O)COCCOCCNC(=O)CC[C@H](NC(=O)CCCCCCCCCCCCCCCCC(=O)O)C(=O)O)cc1)C(=O)N[C@@H](Cc1c[nH]c2ccccc12)C(=O)N[C@@H](CC(C)C)C(=O)N[C@@H](CC(C)C)C(=O)N[C@@H](CC(=O)O)C(=O)N[C@H](C(N)=O)[C@@H](C)O)C(C)C [TP638] (H-H[Aib]QGTFTSDYSKYLDARAAQDFV[Phe(4-CH2NH2)]([AEEA-γGlu-C18 diacid])WLLDT-NH2) |  | > 8.30 | 3.3 | > 8.30 | 
CC(C)C[C@H](NC(=O)[C@H](Cc1ccc(O)cc1)NC(=O)[C@H](CCCCN)NC(=O)[C@H](CO)NC(=O)[C@H](Cc1ccc(O)cc1)NC(=O)[C@H](CC(=O)O)NC(=O)[C@H](CO)NC(=O)[C@@H](NC(=O)[C@H](Cc1ccccc1)NC(=O)[C@@H](NC(=O)CNC(=O)[C@H](CCC(N)=O)NC(=O)C(C)(C)NC(=O)[C@@H](N)Cc1c[nH]cn1)[C@@H](C)O)[C@@H](C)O)C(=O)N[C@@H](CC(=O)O)C(=O)N[C@@H](CCC(=O)O)C(=O)N[C@@H](CCCNC(=N)N)C(=O)N[C@@H](C)C(=O)N[C@@H](C)C(=O)N[C@@H](Cc1ccc(CNC(=O)COCCOCCNC(=O)COCCOCCNC(=O)CC[C@H](NC(=O)CCCCCCCCCCCCCCCCC(=O)O)C(=O)O)cc1)C(=O)N[C@@H](CC(=O)O)C(=O)N[C@@H](Cc1ccccc1)C(=O)N[C@H](C(=O)N[C@@H](CCC(N)=O)C(=O)N[C@@H](Cc1c[nH]c2ccccc12)C(=O)N[C@@H](CC(C)C)C(=O)N[C@@H](CC(C)C)C(=O)N[C@@H](CCCCN)C(=O)N[C@H](C(N)=O)[C@@H](C)O)C(C)C [TP587] (H-H[Aib]QGTFTSDYSKYLDERAA[Phe(4-CH2NH2)]([AEEA-AEEA-γGlu-C18 diacid])DFVQWLLKT-NH2; N-terminus assumed) | 9.39 | > 8.30 | >4.1 | > 8.30 | 
CC(C)C[C@H](NC(=O)[C@H](Cc1ccc(O)cc1)NC(=O)[C@H](CCCCN)NC(=O)[C@H](CO)NC(=O)[C@H](Cc1ccc(O)cc1)NC(=O)[C@H](CC(=O)O)NC(=O)[C@H](CO)NC(=O)[C@@H](NC(=O)[C@H](Cc1ccccc1)NC(=O)[C@@H](NC(=O)CNC(=O)[C@H](CCC(N)=O)NC(=O)C(C)(C)NC(=O)[C@@H](N)Cc1c[nH]cn1)[C@@H](C)O)[C@@H](C)O)C(=O)N[C@@H](CC(=O)O)C(=O)N[C@@H](C)C(=O)N[C@@H](CCCNC(=N)N)C(=O)N[C@@H](C)C(=O)N[C@@H](C)C(=O)N[C@@H](CCC(N)=O)C(=O)N[C@@H](CC(=O)O)C(=O)N[C@@H](Cc1ccccc1)C(=O)N[C@H](C(=O)N[C@@H](CCC(N)=O)C(=O)N[C@@H](Cc1c[nH]c2ccccc12)C(=O)N[C@@H](CC(C)C)C(=O)N[C@@H](CCS(C)(=O)=O)C(=O)N[C@@H](CCCCNC(=O)COCCOCCNC(=O)COCCOCCNC(=O)CC[C@H](NC(=O)CCCCCCCCCCCCCCCCC(=O)O)C(=O)O)C(=O)N[C@H](C(N)=O)[C@@H](C)O)C(C)C [TP602] (H-H[Aib]QGTFTSDYSKYLDARAAQDFVQWL[Met(O2)]K([AEEA-AEEA-γGlu-C18 diacid])T-NH2) |  | > 8.30 | 6.3 | > 8.30 | 

Second part, the compound after the results:

pEC50 [1, 3] | pEC50 [1, 4] | hGCGR/hGLP1R (hTone) [2] | pEC50 [2, 5] | pEC50 ([2]; cells expressing human GCGR, cAMP production, buffer with or without 20% human serum (not stated which), read-out: GCGR EC50 human) | Structure (SMILES)
8.31 | > 8.30 | <0.41 | > 8.30 |  | CC(C)C[C@H](NC(=O)[C@H](Cc1c[nH]c2ccccc12)NC(=O)[C@H](CCC(N)=O)NC(=O)[C@@H](NC(=O)[C@H](Cc1ccccc1)NC(=O)[C@](C)(CC(=O)O)NC(=O)[C@H](CCCCNC(=O)COCCOCCNC(=O)COCCOCCNC(=O)CC[C@H](NC(=O)CCCCCCCCCCCCCCCCC(=O)O)C(=O)O)NC(=O)[C@H](C)NC(=O)[C@H](C)NC(=O)[C@H](CCCNC(=N)N)NC(=O)[C@H](C)NC(=O)[C@](C)(CC(=O)O)NC(=O)[C@H](CC(C)C)NC(=O)[C@H](Cc1ccc(O)cc1)NC(=O)[C@H](CCCCN)NC(=O)[C@H](CO)NC(=O)[C@H](Cc1ccc(O)cc1)NC(=O)[C@H](CC(=O)O)NC(=O)[C@H](CO)NC(=O)[C@@H](NC(=O)[C@H](Cc1ccccc1)NC(=O)[C@@H](NC(=O)CNC(=O)[C@H](CCC(N)=O)NC(=O)C(C)(C)NC(=O)[C@@H](N)Cc1c[nH]cn1)[C@@H](C)O)[C@@H](C)O)C(C)C)C(=O)N[C@@H](CCS(C)(=O)=O)C(=O)N[C@@](C)(CC(=O)O)C(=O)N[C@H](C(N)=O)[C@@H](C)O [TP612] (H-H[Aib]QGTFTSDYSKYL[αMeD]ARAAK([AEEA-AEEA-γGlu-C18 diacid])[αMeD]FVQWL[Met(O2)][αMeD]T-NH2; N-terminus assumed)
 | > 8.30 | 1.9 | > 8.30 | 8.31 | CC(C)C[C@H](NC(=O)[C@H](Cc1ccc(O)cc1)NC(=O)[C@H](CCCCN)NC(=O)[C@H](CO)NC(=O)[C@H](Cc1ccc(O)cc1)NC(=O)[C@H](CC(=O)O)NC(=O)[C@H](CO)NC(=O)[C@@H](NC(=O)[C@H](Cc1ccccc1)NC(=O)[C@@H](NC(=O)CNC(=O)[C@H](CCC(N)=O)NC(=O)C(C)(C)NC(=O)[C@@H](N)Cc1c[nH]cn1)[C@@H](C)O)[C@@H](C)O)C(=O)N[C@@H](CC(=O)O)C(=O)N[C@@H](C)C(=O)N[C@@H](CCCNC(=N)N)C(=O)N[C@@H](C)C(=O)N[C@@H](C)C(=O)N[C@@H](CCCCNC(=O)COCCOCCNC(=O)COCCOCCNC(=O)CC[C@H](NC(=O)CCCCCCCCCCCCCCCCCCC(=O)O)C(=O)O)C(=O)N[C@@](C)(CC(=O)O)C(=O)N[C@@H](Cc1ccccc1)C(=O)N[C@H](C(=O)N[C@@H](CCC(N)=O)C(=O)N[C@@H](Cc1c[nH]c2ccccc12)C(=O)N[C@@H](CC(C)C)C(=O)N[C@@H](CCS(C)(=O)=O)C(=O)N[C@@H](CC(=O)O)C(=O)N[C@H](C(N)=O)[C@@H](C)O)C(C)C [TP594] (H-H[Aib]QGTFTSDYSKYLDARAAK([AEEA-AEEA-γGlu-C20 diacid])[αMeD]FVQWL[Met(O2)]DT-NH2; N-terminus assumed)
9.28 | > 8.30 | 0.2 | > 8.30 |  | CC(C)C[C@H](NC(=O)[C@H](Cc1ccc(O)cc1)NC(=O)[C@H](CCCCN)NC(=O)[C@H](CO)NC(=O)[C@H](Cc1ccc(O)cc1)NC(=O)[C@H](CC(=O)O)NC(=O)[C@H](CO)NC(=O)[C@@H](NC(=O)[C@H](Cc1ccccc1)NC(=O)[C@@H](NC(=O)CNC(=O)[C@H](CCC(N)=O)NC(=O)C(C)(C)NC(=O)[C@@H](N)Cc1c[nH]cn1)[C@@H](C)O)[C@@H](C)O)C(=O)N[C@@H](CC(=O)O)C(=O)N[C@@H](C)C(=O)N[C@@H](CCCNC(=N)N)C(=O)N[C@@H](C)C(=O)N[C@@H](C)C(=O)N[C@@H](Cc1ccc(CNC(=O)COCCOCCNC(=O)COCCOCCNC(=O)CC[C@H](NC(=O)CCCCCCCCCCCCCCCCC(=O)O)C(=O)O)cc1)C(=O)N[C@@H](CC(=O)O)C(=O)N[C@@H](Cc1ccccc1)C(=O)N[C@H](C(=O)N[C@@H](CCC(N)=O)C(=O)N[C@@H](Cc1c[nH]c2ccccc12)C(=O)N[C@@H](CC(C)C)C(=O)N[C@@H](CCS(C)(=O)=O)C(=O)N[C@@](C)(CC(=O)O)C(=O)N[C@H](C(N)=O)[C@@H](C)O)C(C)C [TP636] (H-H[Aib]QGTFTSDYSKYLDARAA[Phe(4-CH2NH2)]([AEEA-AEEA-γGlu-C18 diacid])DFVQWL[Met(O2)][αMeD]T-NH2; N-terminus assumed)
